Assay results: US20090203780A1, “Use of a Polyunsaturated Fatty Acid Compound” (priority 2006, published 2009)

system: enteroendocrine STC1-1 cell line; experiment: CCK release from intestinal cells (in-vitro trial, CCK RIA); format: cell-based; parameters: CCK release (Effects of fatty acids on CCK release): unit not given here; conditions: 100 μM, 1 hour
Method: The relative CCK release by a number of different compounds was determined in an in-vitro trial to measure the effect of various free fatty acids on CCK release from intestinal cells.
The enteroendocrine STC1-1 cell line was cultivated at 37° C. in a 5% CO2, 95% air atmosphere in standard culture medium (DMEM). Cells were routinely passaged upon reaching 70-80% confluency by washing the cell layer with PBS and incubating with a solution of trypsin-EDTA. Plating density of 2×10^6 cells by 75 cm^2 was used for routine subculture.
STC1 cells were seeded into 6-well culture plates and incubated with control culture medium, with or without the tested agents, for 1 hour. All agents were tested at a 100 μM concentration in the free fatty acid form. Since fatty acids were diluted into ethanol the effect of ethanol was tested and indicated the baseline CCK levels. […] Effects of bombesin was used as positive control. At the end of incubation the supernatant was collected, centrifuged and immediately frozen at −20° C. for RIA.
Cell viability was checked by microscopic analysis using an MTT cytotoxicity assay, and in addition LDH release was measured.
CCK release was measured using a standard CCK RIA and effects of fatty acids were measured in 6-fold.

For `CCCCCC=CCC=CCC=CCC=CCCCC(=O)O` [Arachidonic acid (20:4), 5,8,11,14-eicosatetraenoic acid], the “CCK release compared with other fatty acids (in words)” value was “higher level of CCK release than other related fatty acids”.

same assay, conditions: 100 microM, free fatty acid form, 1 hour incubation, RIA of supernatant, measured in 6-fold, ethanol baseline 53

Going from `CCCCCCCCCC(=O)O` [Capric acid] to `CCCCCC=CCC=CCC=CCC=CCCCC(=O)O` [Arachidonic acid (20:4), 5,8,11,14-eicosatetraenoic acid], the “CCK release (Effects of fatty acids on CCK release)” value rises from 43 to 392.

Going from `CC/C=C\C/C=C\C/C=C\CCCC/C=C\CCCC(=O)O` [Juniperonic acid (20:4), Juniperonic acid] to `CC/C=C\C/C=C\C/C=C\C/C=C\C/C=C\CCCC(=O)O` [Eicosapentanoic acid (20:5), Eicosapentanoic acid], the “CCK release (Effects of fatty acids on CCK release)” value rises from 97 to 164.

Going from conjugated linoleic acid [CLA] to `CCCCCC/C=C/C=C/CCCCCCCC(=O)O` (single isomer, unassigned) [CLA 9, 11 isomer], the “CCK release (Effects of fatty acids on CCK release)” value rises from 87 to 135.

First: CCCCC/C=C\C/C=C\CCCC/C=C\CCCC(=O)O [Sciadonic acid (20:3), Sciadonic acid]
Second: CCCCC/C=C\C/C=C\C/C=C\CCCCC(=O)O [Gamma-linolenic acid (18:3), Gamma-linolenic acid]
The “CCK release (Effects of fatty acids on CCK release)” value of the first is lower: 79 for the first, 140 for the second.

First: CC/C=C\C/C=C\C/C=C\C/C=C\CCCCC(=O)O [Stearidonic acid (18:4), Stearidonic acid]
Second: CCCC/C=C/C=C/C=C\CCCCCCCC(=O)O [Alpha-eleostearic acid (18:3), Alpha-eleostearic acid]
The “CCK release (Effects of fatty acids on CCK release)” value of the first is lower: 69 for the first, 212 for the second.

First: CCCCCCCC/C=C\CC/C=C\CCCC(=O)O [Taxoleic acid (18:2)]
Second: CCCCC=CC=CC=CCCCCCCCC(=O)O [Gamma-eleostearic acid (18:3), Gamma-eleostearic acid]
The “CCK release (Effects of fatty acids on CCK release)” value of the first is lower: 82 for the first, 126 for the second.

Compared with `CCCC\C=C/C=C/C=C\CCCCCCCC(=O)O` [Punicic acid (18:3), Punicic acid], `CCCCCC=CC=CCCCCCCCCC(=O)O` (single isomer, unassigned) [CLA 10, 12 isomer] is lower in “CCK release (Effects of fatty acids on CCK release)” value: 320 for the first, 133 for the second.

First: CCCCCCCCCCCC(=O)O [Lauric acid]
Second: CCCCCCCC/C=C\CCCCCCCC(=O)O [Oleic acid (18:1), Oleic acid]
The “CCK release (Effects of fatty acids on CCK release)” value of the first is higher: 118 for the first, 90 for the second.

Going from `CCCCC/C=C\C/C=C\CCCCCCCC(=O)O` [Linoleic acid (18:2), Linoleic acid] to `CC/C=C\C/C=C\C/C=C\CCCCCCCC(=O)O` [Alpha-linolenic acid (18:3), Alpha-linolenic acid], the “CCK release (Effects of fatty acids on CCK release)” value rises from 68 to 177.

system: enteroendocrine STC1-1 cell line; experiment: not given; conditions: negative control fatty acid; cited from earlier work

In the case of `CCCCCCCCCC(=O)O` [Capric acid], the “Induction of CCK (already known)” value is given as “does not induce CCK”.
